Results: PubChem BioAssay AID1963848 (Molecular Pharmacology Branch, DTP, NCI, 2024)
pIC50: −log10 of the molar value.

System: 379773-124-R-J2-PDC spheroid viability
Assay: Anticancer human tumor 379773-124-R-J2-PDC patient-derived endometrial carcinoma cell line growth inhibition [POLQ]
Settings: spheroids with HUVEC and MSC; for pIC50: curve of first compound; for viability, T/C: stronger effect = lower value
Summary of the method: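 Complex spheroid viability model combining PDC tumour cells with endothelial (HUVEC) and MSC stromal cells. Novobiocin, ART-558 or RP6685 were tested singly and in combination with standard and investigational anticancer drugs. Each was titrated in half-log steps from near clinical Cmax, or from 10 microM where Cmax was unknown.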

[1] = second compound 0.0316 µM, first compound 0.00316 µM
[2] = second compound 0.0316 µM, first compound 0.01 µM
[3] = second compound 0.0316 µM, first compound 0.0316 µM
[4] = second compound 0.0316 µM, first compound 0.1 µM
[5] = second compound 0.1 µM, first compound 0.00316 µM
[6] = second compound 0.1 µM, first compound 0.01 µM
[7] = second compound 0.1 µM, first compound 0.0316 µM
[8] = second compound 0.1 µM, first compound 0.1 µM
[9] = second compound 0.316 µM, first compound 0.00316 µM
[10] = second compound 0.316 µM, first compound 0.01 µM
[11] = second compound 0.316 µM, first compound 0.0316 µM
[12] = second compound 0.316 µM, first compound 0.1 µM
[13] = second compound 1 µM, first compound 0.00316 µM
[14] = second compound 1 µM, first compound 0.01 µM
[15] = second compound 1 µM, first compound 0.0316 µM
[16] = second compound 1 µM, first compound 0.1 µM
[17] = second compound 3.16 µM, first compound 0.00316 µM
[18] = second compound 3.16 µM, first compound 0.01 µM
[19] = second compound 3.16 µM, first compound 0.0316 µM
[20] = second compound 3.16 µM, first compound 0.1 µM
[21] = second compound 10 µM, first compound 0.00316 µM
[22] = second compound 10 µM, first compound 0.01 µM
[23] = second compound 10 µM, first compound 0.0316 µM
[24] = second compound 10 µM, first compound 0.1 µM
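Also: spheroids exposed to drugs for seven days before readout.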
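For viability, T/C in this document: percent viability relative to DMSO vehicle control taken as 100%.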

CC[C@@]1(O)C(=O)OCc2c1cc1n(c2=O)Cc2cc3c(CN(C)C)c(O)ccc3nc2-1 + COC1C(OC(N)=O)C(O)C(Oc2ccc3c(O)c(NC(=O)c4ccc(O)c(CC=C(C)C)c4)c(=O)oc3c2C)OC1(C)C
pIC50 (second compound 0.0316 µM): 7.49
pIC50 (second compound 0.1 µM): 7.72
pIC50 (second compound 0.316 µM): 7.72
pIC50 (second compound 1 µM): 7.77
pIC50 (second compound 3.16 µM): 7.66
pIC50 (second compound 10 µM): 7.68
viability, T/C (second compound 0.0316 µM, first compound 0.000316 µM): 86.5%
viability, T/C (second compound 0.0316 µM, first compound 0.001 µM): 79.3%
viability, T/C [1]: 85.7%
viability, T/C [2]: 73.5%
viability, T/C [3]: 51.2%
viability, T/C [4]: 10.9%
viability, T/C (second compound 0.1 µM, first compound 0.000316 µM): 73.3%
viability, T/C (second compound 0.1 µM, first compound 0.001 µM): 77.8%
viability, T/C [5]: 74.1%
viability, T/C [6]: 71.2%
viability, T/C [7]: 33.9%
viability, T/C [8]: 14.1%
viability, T/C (second compound 0.316 µM, first compound 0.000316 µM): 85.7%
viability, T/C (second compound 0.316 µM, first compound 0.001 µM): 78.6%
viability, T/C [9]: 78.2%
viability, T/C [10]: 71.2%
viability, T/C [11]: 33.6%
viability, T/C [12]: 12.1%
viability, T/C (second compound 1 µM, first compound 0.000316 µM): 86.4%
viability, T/C (second compound 1 µM, first compound 0.001 µM): 94.9%
viability, T/C [13]: 72.6%
viability, T/C [14]: 68%
viability, T/C [15]: 32.2%
viability, T/C [16]: 9.89%
viability, T/C (second compound 3.16 µM, first compound 0.000316 µM): 76.9%
viability, T/C (second compound 3.16 µM, first compound 0.001 µM): 71.5%
viability, T/C [17]: 83.1%
viability, T/C [18]: 65%
viability, T/C [19]: 42.4%
viability, T/C [20]: 11.6%
viability, T/C (second compound 10 µM, first compound 0.000316 µM): 72.9%
viability, T/C (second compound 10 µM, first compound 0.001 µM): 73.3%
viability, T/C [21]: 82.5%
viability, T/C [22]: 69.6%
viability, T/C [23]: 38.8%
viability, T/C [24]: 12.5%

CCc1c2c(nc3ccc(O)cc13)-c1cc3c(c(=O)n1C2)COC(=O)[C@]3(O)CC + COC1C(OC(N)=O)C(O)C(Oc2ccc3c(O)c(NC(=O)c4ccc(O)c(CC=C(C)C)c4)c(=O)oc3c2C)OC1(C)C
pIC50 (second compound 0.0316 µM): > 8.50
pIC50 (second compound 0.1 µM): > 8.50
pIC50 (second compound 0.316 µM): > 8.50
pIC50 (second compound 1 µM): > 8.50
pIC50 (second compound 3.16 µM): > 8.50
pIC50 (second compound 10 µM): > 8.50
viability, T/C [1]: 42.4%
viability, T/C [2]: 8.01%
viability, T/C [3]: 6.39%
viability, T/C [4]: 2.16%
viability, T/C (second compound 0.0316 µM, first compound 0.316 µM): 1.05%
viability, T/C (second compound 0.0316 µM, first compound 1 µM): 0.62%
viability, T/C [5]: 49.5%
viability, T/C [6]: 11.7%
viability, T/C [7]: 5.4%
viability, T/C [8]: 1.94%
viability, T/C (second compound 0.1 µM, first compound 0.316 µM): 0.57%
viability, T/C (second compound 0.1 µM, first compound 1 µM): 1.04%
viability, T/C [9]: 45.1%
viability, T/C [10]: 8.27%
viability, T/C [11]: 5.04%
viability, T/C [12]: 2.09%
viability, T/C (second compound 0.316 µM, first compound 0.316 µM): 2.43%
viability, T/C (second compound 0.316 µM, first compound 1 µM): 0.41%
viability, T/C [13]: 40%
viability, T/C [14]: 9.16%
viability, T/C [15]: 5.09%
viability, T/C [16]: 1.92%
viability, T/C (second compound 1 µM, first compound 0.316 µM): 0.94%
viability, T/C (second compound 1 µM, first compound 1 µM): 0.31%
viability, T/C [17]: 41.8%
viability, T/C [18]: 9.15%
viability, T/C [19]: 5.39%
viability, T/C [20]: 2.03%
viability, T/C (second compound 3.16 µM, first compound 0.316 µM): 0.93%
viability, T/C (second compound 3.16 µM, first compound 1 µM): 0.3%
viability, T/C [21]: 41.5%
viability, T/C [22]: 7.13%
viability, T/C [23]: 6.51%
viability, T/C [24]: 1.69%
viability, T/C (second compound 10 µM, first compound 0.316 µM): 1.78%
viability, T/C (second compound 10 µM, first compound 1 µM): 0.49%
